Test results published in patent US20260069584A1, “METHODS OF TREATING CHRONIC MYELOID LEUKEMIA USING THE TYROSINE KINASE INHIBITOR VODOBATINIB” (Sun Pharma Advanced Research Company Ltd., priority 2022, published 2026).
Several values for one entry are separate records, joined by “and”; a condition that tells them apart may be missing. Equal values may be shown once.

Columns and labels:
[1] = Part C: adverse events
Description: In this study, the patient population of each cohort was evaluated separately for efficacy and safety. The subjects were treated in 4-week cycles using once-daily, oral administration of the compound of Formula I and evaluated for anti-CML responses (hematological, cytogenetic and molecular response). The Adverse events (AEs) were assessed throughout the study until 30 days after discontinuation of administration of the compound of Formula I and were graded as per National Cancer Institute, Common Terminology Criteria for Adverse Events (NCI-CTCAE) Version 5.0.
Study assessments monitored the efficacy and safety of the compound of Formula I. The efficacy assessments at baseline included cytogenetic, molecular, and hematology evaluations and sequencing for identification of the BCR-ABL kinase domain mutation, if any. Cytogenetic and molecular assessments were carried out by central labs. Hematologic assessments were completed within the −7 to −1 days of the patient was dosed by the site's local laboratory. Safety assessments at baseline included clinical evaluations, electrocardiograms, complete blood counts, and serum chemistry tests.
Patients were evaluated every 7 days in 4-week cycles up until Cycle 3 day 1, after which they were required to visit the site on Cycle 3 day 28; and once every 3 cycles thereafter for complete blood counts, chemistry analyses, and efficacy assessments. Each cycle visit included clinical evaluations, electrocardiograms, complete blood counts, and serum chemistry tests. Efficacy assessments consisting of bone marrow aspiration for cytogenetic analysis with molecular testing to measure the BCR/ABL1 transcript levels were carried out every 3 months. On discontinuation, patients were required to visit the site for an End of Treatment (EoT) visit which happened 30 days after the date of discontinuation of therapy. Patients were followed for survival by telephone survey.

[2] = tested on: Ph+ CML (CP CML, AP CML and BP CML) and Ph+ ALL; assay: Parts B and C pooled (n=59): disease response; assay type: in vivo, human
Description: Additionally, 71.2% of all the subjects were refractory and/or intolerant to ≥3 TKIs. The MCyR and MMR in subjects with CP CML were 63% and 34.8%, respectively, and those with more aggressive disease viz. AP CML, BP CML and Ph+ ALL were 53.8% and 30.8%, respectively.
The MTD of the compound of Formula I was 204 mg while RP2D was 174 mg QD. Anti-leukemic activity in the form of hematological, cytogenetic and molecular responses was reported across Parts B and C (n=59). Major cytogenetic responses were reported in 61% of subjects while major molecular responses were reported in 33.9% of subjects across doses. […] There is limited evidence of activity in the CML literature in such a heavily pre-treated population.

[3] = in vivo; assay type: in vivo; details: 14-day study
[4] = tested on: cell lines expressing Ph+ wild-type and mutant forms of BCR-ABL1; assay: Growth inhibition of cell lines; assay type: cell-based

## Cc1ccc(C(=O)NNC(=O)c2c(C)cccc2Cl)cc1C#Cc1cnc2ccccc2c1 [compound of Formula I, N′-(2-chloro-6-methylbenzoyl)-4-methyl-3-[2-(3-quinolyl)ethynyl]-benzohydrazide]
[1]; 19 subjects
  TEAE cough: 21.1%
  TEAE dyspnea: 21.1%
  TEAE fatigue: 21.1%
  TEAE nausea: 26.3%
  TEAE neutropenia: 21.1%
  TEAE rash: 26.3%
  TEAE thrombocytopenia: 31.6%
[1]; All Grades (N = 19)
  Abdominal pain: 2 (10.5) n (%)
  Anaemia: 3 (15.8) n (%)
  Arthralgia: 2 (10.5) n (%)
  Back pain: 2 (10.5) n (%)
  COVID-19: 2 (10.5) n (%)
  Chest pain: 2 (10.5) n (%)
  Constipation: 3 (15.8) n (%)
  Contusion: 2 (10.5) n (%)
  Cough: 4 (21.1) n (%)
  Diarrhoea: 3 (15.8) n (%)
  Dizziness: 2 (10.5) n (%)
  Dry skin: 3 (15.8) n (%)
  Dyspnoea: 4 (21.1) n (%)
  Fatigue: 4 (21.1) n (%)
  Flank pain: 2 (10.5) n (%)
  Headache: 3 (15.8) n (%)
  Herpes zoster: 2 (10.5) n (%)
  Hypertension: 3 (15.8) n (%)
  Hyperuricaemia: 2 (10.5) n (%)
  Hypocalcaemia: 2 (10.5) n (%)
  Hypokalaemia: 2 (10.5) n (%)
  Hypophosphataemia: 2 (10.5) n (%)
  Muscle spasms: 2 (10.5) n (%)
  Nasopharyngitis: 2 (10.5) n (%)
  Nausea: 5 (26.3) n (%)
  Neutropenia: 4 (21.1) n (%)
  Oropharyngeal pain: 2 (10.5) n (%)
  Pancytopenia: 2 (10.5) n (%)
  Rash: 5 (26.3) n (%)
  thrombocytopenia: 6 (31.6) n (%)
[1]; Grade 3 or 4 (N = 9)
  Abdominal pain: 0 n
  Anaemia: 1 n
  Arthralgia: 0 n
  Back pain: 0 n
  COVID-19: 1 n
  Chest pain: 0 n
  Constipation: 0 n
  Contusion: 0 n
  Cough: 0 n
  Diarrhoea: 1 n
  Dizziness: 0 n
  Dry skin: 0 n
  Dyspnoea: 1 n
  Fatigue: 0 n
  Flank pain: 0 n
  Headache: 0 n
  Herpes zoster: 0 n
  Hypertension: 0 n
  Hyperuricaemia: 0 n
  Hypocalcaemia: 1 n
  Hypokalaemia: 1 n
  Hypophosphataemia: 0 n
  Muscle spasms: 0 n
  Nasopharyngitis: 0 n
  Nausea: 1 n
  Neutropenia: 3 n
  Oropharyngeal pain: 0 n
  Pancytopenia: 1 n
  Rash: 0 n
  thrombocytopenia: 4 n
[1]; heavily pre-treated CML population
  tolerability: well tolerated
[1]; in vivo
  Grade 3 or 4 TEAE neutropenia: 33.3%
  Grade 3 or 4 TEAE thrombocytopenia: 44.4%
[2]; 174 mg initial dose, 2 subjects
  major molecular response deepened to complete molecular response: 9.1%
[2]; 174 mg initial dose, 20 out of 24 subjects
  complete hematological response: 83.3%
[2]; 29 subjects with prior ponatinib (n=11 of 29)
  MMR: 37.93% and 37.9%
[2]; 29 subjects with prior ponatinib (n=15 of 29)
  MCyR: 51.7%
[2]; AP CML, BP CML and Ph+ ALL
  MCyR: 53.8%
  MMR: 30.8%
[2]; RP2D of 174 mg, independent of prior ponatinib exposure
  major cytogenetic response: 50%
[2]; all subjects, across doses
  major cytogenetic response (MCyR): 61%
  major molecular response (MMR): 33.9%
[2]; subjects with CP CML
  MCyR: 63%
  MMR: 34.8%
[3]
  dose up to which no mortality or severe clinical signs were observed: ≤ 625 mg/kg/day
[3]; dog, in vivo
  NOAEL at 14 days: 83 mg/kg/day
[4]
  effect on cell lines: growth inhibition
